In US12606533B2, “3-phenylpropylamine derivative” (DAIICHI SANKYO COMPANY, LIMITED, priority 2023, dated 2026) one finds DC50 and GI50 data, which are given here for twelve compounds.

The target of one experiment is T1, SF-1 (Homo sapiens, UniProt Q13285).
T1 construct: NCI-H295R SF-1-HiBiT cells with HiBiT tag knocked in at the endogenous SF1 locus; host or cells: NCI-H295R SF-1-HiBiT (knock-in at endogenous locus)
The experiment is described as follows: SF1 degradation induction in NCI-H295R SF-1-HiBiT cells (HiBiT DC50). It is filed as cell-based. The conditions noted are these: 24 hr, concentration that induces 50% degradation of SF-1. The method, then:
NCI-H295R SF-1-HiBiT cells were seeded in a 384-well plate (Thermo Fisher Scientific Inc.) at 1×10^4 cells/50 μL/well and cultured at 37° C. in a 5% CO2 incubator for 24 hr. DMSO solutions of each compound were serially diluted with DMSO using a D300e Digital Dispenser (TECAN), added to a 384-well plate, and cultured in a 5% CO2 incubator at 37° C. for 24 hr. […] After completion of culture, the medium was discarded, and Nano-Glo (registered trade mark) HiBiT Lytic Detection System (Promega, Cat. No. N3040) was added at 20 μL/well and stirred with a plate mixer. Luminescence signals were then detected using a multimode plate reader (EnVision Xcite, PerkinElmer). The SF-1 protein degradation rate was calculated from the amount of luminescence (C) in the compound-free group and the amount of luminescence (T) in the compound-added group, based on the following formula.
The obtained data was analyzed using GraphPad Prism9 (GraphPad Software Inc.) or Genedata Screener (Genedata AG) to calculate the concentration that induces 50% degradation of SF-1 (DC50 value).
(The HiBiT peptide binds its large partner to form an active luciferase.)

For another experiment, the system named is NCI-H295R cells. The experiment is described as follows: Proliferation inhibitory action on NCI-H295R (CellTiter-Glo, 7 days). It is filed as cell-based, human. Particulars: Homo sapiens, NCI-H295R, 168 h. The method, then:
DMSO solutions of each compound were serially diluted with DMSO using a D300e Digital Dispenser (TECAN), and added to a 384-well plate (Thermo Fisher Scientific Inc.). NCI-H295R cells were seeded in a 384-well plate at 2×10^3 cells/40 μL/well and cultured for 7 days in a 37° C., 5% CO2 incubator. […] On the first day of culture (day 0) and the seventh day of culture (day 7), 10 μL/well of CellTiter-Glo (registered trademark) 2.0 Assay (Promega) was added, and the luminescence signal was detected using a multimode plate reader (EnVision, PerkinElmer). The cell proliferation rate was calculated from the luminescence amount on the day of compound addition (CO), the luminescence amount of the compound-free group after 7 days of culture (C7), and the luminescence amount of the compound-added group (T7), based on the following formula.
A general note: Cellular ATP, detected with luciferase, serves as a proxy for viable cell number.

What is called DC50 is the concentration giving 50% degradation. Higher therefore signals a less potent degrader. The term GI50 denotes the concentration that inhibits growth by half.

Take `COc1ccc([C@]2(CCN(Cc3ccc(C4=CCC(C(=O)N5CCN(Cc6ccc7c(c6)n(C)c(=O)n7C6CCC(=O)NC6=O)CC5)CC4)c(C)c3)CC(C)(C)C(F)(F)F)CCOC(C)(C)C2)cc1` (stereo partly drawn) [AS7, 3-[5-({4-[(4′-{[{2-[(4R)-4-(4-Methoxyphenyl)-2,2-dimethyltetrahydro-2H-pyran-4-yl]ethyl)(3,3,3-trifluoro-2,2-dimethylpropyl)amino]methyl}-2′-methyl-2,3,4,5-tetrahydro[biphenyl]-4-yl)carbonyl]piperazin-1-yl}methyl)-3-methyl-2-oxo-2,3-dihydro-1H-benzimidazol-1-yl]piperidine-2,6-dione]: at SF-1, half-maximal degradation (DC50) was put at 4.1 nM. Moreover, the concentration for 50% growth inhibition (GI50) with NCI-H295R cells was determined as 56 nM.

As to `COc1ccc([C@]2(CCN(Cc3ccc(C4=CC[C@H](C(=O)N5CCC(Nc6cc7c(cc6F)n(C6CCC(=O)NC6=O)c(=O)n7C)CC5)CC4)cc3)CC(C)(C)C(F)(F)F)CCOC(C)(C)C2)cc1` (stereo partly drawn) [BT6, 3-{6-Fluoro-5-[(1-{[(4R)-4′-{[{2-[(4R)-4-(4-methoxyphenyl)-2,2-dimethyltetrahydro-2H-pyran-4-yl]ethyl}(3,3,3-trifluoro-2,2-dimethylpropyl)amino]methyl}-2,3,4,5-tetrahydro[biphenyl]-4-yl]carbonyl}piperidin-4-yl)amino]-3-methyl-2-oxo-2,3-dihydro-1H-benzimidazol-1-yl}piperidine-2,6-dione], it took 3.5 nM to reach half-maximal degradation at SF-1 (DC50). Also, in the experiment on NCI-H295R cells, the GI50 is 48 nM.

On SF-1, `COc1ccc([C@]2(CCN(Cc3ccc(C4=CC[C@H](CN5CCN(C(=O)c6ccc7c8c6CCCn8c(=O)n7[C@@H]6CCC(=O)NC6=O)CC5)CC4)cc3)CC(C)(C)C(F)(F)F)CCOC(C)(C)C2)cc1` [BG5, (3R)-3-{7-[(4-{[(4R)-4′-{[{2-[(4R)-4-(4-Methoxyphenyl)-2,2-dimethyltetrahydro-2H-pyran-4-yl]ethyl}(3,3,3-trifluoro-2,2-dimethylpropyl)amino]methyl}-2,3,4,5-tetrahydro[biphenyl]-4-yl]methyl}piperazin-1-yl)carbonyl]-2-oxo-5,6-dihydro-4H-imidazo[4,5,1-ij]quinolin-1(2H)-yl}piperidine-2,6-dione] yielded a 50% degradation concentration (DC50) of 9.2 nM. In the experiment with NCI-H295R cells, this compound gave a GI50 of 84 nM.

In turn, `COc1ccc([C@]2(CCN(Cc3ccc(C4=CCC(C(=O)N[C@H]5C[C@H](Nc6ccc7c(c6)n(C)c(=O)n7C6CCC(=O)NC6=O)C5)CC4)cc3)CC(C)(C)C(F)(F)F)CCOC(C)(C)C2)cc1` (stereo partly drawn) [AY8, N-(Trans-3-{[1-(2,6-dioxopiperidin-3-yl)-3-methyl-2-oxo-2,3-dihydro-1H-benzimidazol-5-yl]amino}cyclobutyl)-4′-{[{2-[(4R)-4-(4-methoxyphenyl)-2,2-dimethyltetrahydro-2H-pyran-4-yl]ethyl}(3,3,3-trifluoro-2,2-dimethylpropyl)amino]methyl}-2,3,4,5-tetrahydro[biphenyl]-4-carboxamide] registered a DC50 on SF-1 of 7.3 nM. In the experiment on NCI-H295R cells, this compound gave a GI50 of 71 nM.

With `COc1ccc([C@]2(CCN(Cc3ccc(OC4CC5(CCN(CC(=O)N6CCc7ccc8c(c7C6)n(C)c(=O)n8C6CCC(=O)NC6=O)CC5)C4)cc3)CC(C)(C)C(F)(F)F)CCOC(C)(C)C2)cc1` (stereo partly drawn) [Example AK10, 3-(8-{[2-(4-{[{2-[(4R)-4-(4-Methoxyphenyl)-2,2-dimethyltetrahydro-2H-pyran-4-yl]ethyl}(3,3,3-trifluoro-2,2-dimethylpropyl)amino]methyl}phenoxy)-7-azaspiro[3.5]nonan-7-yl]acetyl}-1-methyl-2-oxo-1,2,6,7,8,9-hexahydro-3H-imidazo[4,5-h]isoquinolin-3-yl)piperidine-2,6-dione], it took 4.9 nM to reach half-maximal degradation at SF-1 (DC50). In the experiment on NCI-H295R cells, the 50% growth inhibitory concentration (GI50) was found to be 82 nM.

With `COc1ccc([C@]2(CCN(Cc3ccc(C4=CC[C@H](CN5CCN(C(=O)c6ccc7c8c6O[C@@H]6COC[C@@H]6n8c(=O)n7C6CCC(=O)NC6=O)CC5)CC4)cc3)CC(C)(C)C(F)(F)F)CCOC(C)(C)C2)cc1` (relative stereo) [BV10, 3-[(6aS*,9aS*)-5-[(4-{[(4R)-4′-{[{2-[(4R)-4-(4-Methoxyphenyl)-2,2-dimethyltetrahydro-2H-pyran-4-yl]ethyl}(3,3,3-trifluoro-2,2-dimethylpropyl)amino]methyl}-2,3,4,5-tetrahydro[biphenyl]-4-yl]methyl}piperazin-1-yl)carbonyl]-1-oxo-6a, 7,9,9a-tetrahydrofuro[3,4-b]imidazo[1,5,4-de][1,4]benzoxazin-2(1H)-yl]piperidine-2,6-dione], it took 14 nM to reach half-maximal degradation on SF-1 (DC50). In the experiment on NCI-H295R cells, this compound gave a GI50 of 123 nM.

In the case of `COc1ccc([C@]2(CCN(Cc3cc(F)c(C4=CCC(C(=O)N5CCN(Cc6ccc7c(c6)n(C)c(=O)n7C6CCC(=O)NC6=O)CC5)CC4)c(F)c3)CC(C)(C)C(F)(F)F)CCOC(C)(C)C2)cc1` (stereo partly drawn) [AU4, 3-[5-({4-[(2′,6′-Difluoro-4′-{[{2-[(4R)-4-(4-methoxyphenyl)-2,2-dimethyltetrahydro-2H-pyran-4-yl]ethyl)(3,3,3-trifluoro-2,2-dimethylpropyl)amino]methyl}-2,3,4,5-tetrahydro[biphenyl]-4-yl)carbonyl]piperazin-1-yl}methyl)-3-methyl-2-oxo-2,3-dihydro-1H-benzimidazol-1-yl]piperidine-2,6-dione], it took 9.3 nM to reach half-maximal degradation at SF-1 (DC50). For the same compound, the GI50 in the experiment with NCI-H295R cells stood at 60 nM.

In the case of `COc1ccc([C@]2(CCN(Cc3ccc(C4=CCC(CC(=O)NCCNc5ccc6c(c5)n(C)c(=O)n6C5CCC(=O)NC5=O)CC4)cc3)CC(C)(C)C(F)(F)F)CCOC(C)(C)C2)cc1` (stereo partly drawn) [Example Y6, N-(2-{[1-(2,6-Dioxopiperidin-3-yl)-3-methyl-2-oxo-2,3-dihydro-1H-benzimidazol-5-yl]amino}ethyl)-2-(4′-{[{2-[(4R)-4-(4-methoxyphenyl)-2,2-dimethyltetrahydro-2H-pyran-4-yl]ethyl}(3,3,3-trifluoro-2,2-dimethylpropyl)amino]methyl}-2,3,4,5-tetrahydro[biphenyl]-4-yl)acetamide], half-maximal degradation on SF-1 (DC50) was put at 12 nM. In the experiment on NCI-H295R cells, the concentration for 50% growth inhibition (GI50) stood at 199 nM.

`COc1ccc([C@]2(CCN(Cc3ccc(OC4CC5(CCN(CC(=O)Nc6ccc7c(c6)C(=O)N(C6CCC(=O)NC6=O)C7=O)CC5)C4)cc3)CC(C)(C)C(F)(F)F)CCOC(C)(C)C2)cc1` (stereo partly drawn) [AQ1, N-[2-(2,6-Dioxopiperidin-3-yl)-1,3-dioxo-2,3-dihydro-1H-isoindol-5-yl]-2-[2-(4-{[{2-[(4R)-4-(4-methoxyphenyl)-2,2-dimethyltetrahydro-2H-pyran-4-yl]ethyl}(3,3,3-trifluoro-2,2-dimethylpropyl)amino]methyl}phenoxy)-7-azaspiro[3.5]nonan-7-yl]acetamide] gave a half-maximal degradation concentration (DC50) at SF-1 of 56 nM. Besides, in the experiment on NCI-H295R cells, the GI50 is 286 nM.

The compound `COc1ccc([C@]2(CCN(Cc3ccc(C4=CC[C@H](C(=O)N5CCC(Nc6ccc7c(c6F)n(C)c(=O)n7C6CCC(=O)NC6=O)CC5)CC4)c(F)c3)CC(C)(C)C(F)(F)F)CCOC(C)(C)C2)cc1` (stereo partly drawn) [BX6, 3-{4-Fluoro-5-[(1-{[(4R)-2′-fluoro-4′-{[{2-[(4R)-4-(4-methoxyphenyl)-2,2-dimethyltetrahydro-2H-pyran-4-yl]ethyl}(3,3,3-trifluoro-2,2-dimethylpropyl)amino]methyl}-2,3,4,5-tetrahydro[biphenyl]-4-yl]carbonyl}piperidin-4-yl)amino]-3-methyl-2-oxo-2,3-dihydro-1H-benzimidazol-1-yl}piperidine-2,6-dione] returned a half-maximal degradation concentration (DC50) on SF-1 of 7.1 nM. Further, in the experiment with NCI-H295R cells, growth was halved (GI50) at 52 nM.

On SF-1, `COc1ccc([C@]2(CCN(Cc3ccc(C4=CC[C@@H](C(=O)N5CCC(Nc6ccc7c8c6OCCn8c(=O)n7C6CCC(=O)NC6=O)CC5)CC4)c(F)c3)CC(C)(C)C(F)(F)F)CCOC(C)(C)C2)cc1` (stereo partly drawn) [BN2, 3-{7-[(1-{[(4S)-2′-Fluoro-4′-{[{2-[(4R)-4-(4-methoxyphenyl)-2,2-dimethyltetrahydro-2H-pyran-4-yl]ethyl}(3,3,3-trifluoro-2,2-dimethylpropyl)amino]methyl}-2,3,4,5-tetrahydro[biphenyl]-4-yl]carbonyl}piperidin-4-yl)amino]-2-oxo-4,5-dihydroimidazo[1,5,4-de][1,4]benzoxazin-1(2H)-yl}piperidine-2,6-dione] returned a half-maximal degradation concentration (DC50) of 2.3 nM. This compound came in with a GI50 in the experiment on NCI-H295R cells of 31 nM.

Turning to `COc1ccc([C@]2(CCN(Cc3ccc(C4=CCC(C(=O)N5CCN(Cc6ccc7c(c6)n(C)c(=O)n7C6CCC(=O)NC6=O)CC5)CC4)c(F)c3F)CC(C)(C)C(F)(F)F)CCOC(C)(C)C2)cc1` (stereo partly drawn) [AV2, 3-[5-({4-[(2′,3′-Difluoro-4′-{[{2-[(4R)-4-(4-methoxyphenyl)-2,2-dimethyltetrahydro-2H-pyran-4-yl]ethyl}(3,3,3-trifluoro-2,2-dimethylpropyl)amino]methyl}-2,3,4,5-tetrahydro[biphenyl]-4-yl)carbonyl]piperazin-1-yl}methyl)-3-methyl-2-oxo-2,3-dihydro-1H-benzimidazol-1-yl]piperidine-2,6-dione], half-maximal degradation on SF-1 (DC50) was put at 7.4 nM. Further, the GI50 in the experiment with NCI-H295R cells turned out to be 61 nM.
